The text below walks through data of patent publication US20050059634A1, “Per-6-substituted-per-6-deoxy-cyclodextrins, and use of the same to inhibit soluble beta-amyloid-peptide derived oligomers and to treat alzheimer's and related diseases” (priority 2003, published 2005).

One experiment concerns the target T1, Aβ1-42 (Homo sapiens, UniProt P05067).
T1 construct: an aliquot of Aβ1-42 was dissolved in anhydrous DMSO
As to the kind of experiment: ADDLs formation dot-blot assay (Aβ oligomerization). It counts as biochemical. The note with it: for IC50: purified derivatives, Aβ1-42 10 nM, dot-blot densitometry at 4 hours, read-out: IC50, inhibition of ADDLs formation. Here is the method:
Using a high throughput dot blot assay recently developed for measuring Aβ oligomerization (L. Chang et al., J. Neuromol. Chem., 20, 305-313 (2003)), various beta-CD derivatives were evaluated for an ability to inhibit oligomerization of Aβ1-42. beta-CD (1) is a cyclic glucopyranose oligomer (FIG. 1), whose shape is reminiscent of a lamp-shade, frequently depicted schematically as compound 2 in FIG. 1. Actually three different hydroxyls are present in each sugar in the beta-CD molecule, which can be readily differentiated chemically. Additionally, no plane of symmetry exists in the molecule because the cyclic α-1,4-linkage forms a torus. Consequently, the primary hydroxyl groups are not equivalent when substituted. The end result of these structural features is that symmetry operations are not possible with different substitution patterns and each pattern represents a different compound. […]
ADDLs assay The assays were performed as set forth in Wang et al., J. Med. Chem., 47(13), pages 3329-3333 (2003). […] Time-dependent ADDLs formation was monitored by diluting 4 μl of […] Aβ/DMSO solutions with 196 μl of ice-cold F12 medium to 100 nM and 10 nM Aβ, respectively. […] These F12/CD solutions then were used in ADDLs assays, and the oligomer formation monitored as described. […]
ADDLs Western blot/dot blot assays For Western blots, samples were subjected to SDS-PAGE on 16.5% Tris-tricine gels at 100V […] for 1.5 to 2 hours. […] Visualization of proteins with chemiluminescent reagents was recorded by exposure to ECL film (Amersham-Pharmacia).
Dose response curves Dose response curves were prepared by performing the aforementioned dot-blot assays with Aβ1-42 (10 nM) in the presence of purified per-6-substituted-beta-CDs at the indicated concentrations. The response was determined for the dots at 4 hours using Kodak 1D imaging software and reported as log dose response of the ratio of beta-CD to Aβ1-42 as shown in FIG. 5.

In the next experiment the test system is PC12 cells. Conditions: Camilleri et al. 1994; cited from earlier work.

T1 sequence (P05067 672-713 limits assumed): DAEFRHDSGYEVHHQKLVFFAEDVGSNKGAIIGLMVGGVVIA

For `OC[C@H]1O[C@@H]2O[C@H]3[C@H](O)[C@@H](O)[C@@H](O[C@H]4[C@H](O)[C@@H](O)[C@@H](O[C@H]5[C@H](O)[C@@H](O)[C@@H](O[C@H]6[C@H](O)[C@@H](O)[C@@H](O[C@H]7[C@H](O)[C@@H](O)[C@@H](O[C@H]8[C@H](O)[C@@H](O)[C@@H](O[C@H]1[C@H](O)[C@H]2O)O[C@@H]8CO)O[C@@H]7CO)O[C@@H]6CO)O[C@@H]5CO)O[C@@H]4CO)O[C@@H]3CO` [beta-CD, beta-cyclodextrin], the “inhibitory activity in ADDLs formation assay (qualitative)” value at Aβ1-42 (corresponding concentrations, same conditions as the purified derivatives) is listed as “did not show any detectable inhibitory activity”. Further, the “effect on neurotoxic effects of Aβ1-40” value with PC12 cells is recorded as “substantially diminishes the neurotoxic effects”.

As usually defined, the IC50 is the concentration that gives 50% inhibition. For `OC1C2OC(CNCc3ccco3)C(OC3OC(CNCc4ccco4)C(OC4OC(CNCc5ccco5)C(OC5OC(CNCc6ccco6)C(OC6OC(CNCc7ccco7)C(OC7OC(CNCc8ccco8)C(OC8OC(CNCc9ccco9)C(O2)C(O)C8O)C(O)C7O)C(O)C6O)C(O)C5O)C(O)C4O)C(O)C3O)C1O` (stereo not drawn) [4a, per-furfurylamino-6-deoxy-beta-CD], the IC50 on Aβ1-42 was found to be 540 nM. In the case of `OC1C2OC(CNCc3ccccc3)C(OC3OC(CNCc4ccccc4)C(OC4OC(CNCc5ccccc5)C(OC5OC(CNCc6ccccc6)C(OC6OC(CNCc7ccccc7)C(OC7OC(CNCc8ccccc8)C(OC8OC(CNCc9ccccc9)C(O2)C(O)C8O)C(O)C7O)C(O)C6O)C(O)C5O)C(O)C4O)C(O)C3O)C1O` (stereo not drawn) [5a, per-benzylamino-6-deoxy-beta-CD], the half-maximal inhibitory concentration (IC50) at Aβ1-42 was 460 nM.
